Source: US9399051B2, “Dipeptidyl peptidase-4 inhibitor” (Kaneka Corporation, priority 2009, dated 2016)

System: C57BL/6J SPF male mice
Test: Oral glucose tolerance test, blood sugar levels in mice
Format: in vivo
Settings: mean ± standard error; for Blood sugar level, 0 minutes (pretest value): fasted mice, pretest before administration, in mg/dL (unit assumed); for Blood sugar level, 30 minutes after glucose administration / Blood sugar level, 60 minutes after glucose administration / Blood sugar level, 120 minutes after glucose administration: oral 10 mL/kg (beans 400 mg/mL, sitagliptin 0.1 mg/mL) 30 minutes before oral glucose
Method: The enzyme-treated azuki bean, tora bean and otebo bean prepared in Example 2 and an enzyme-treated defatted soybean prepared using the same method as Example 2 were evaluated for their actual blood sugar lowering effects in the body by using an oral glucose tolerance test. C57BL/6J SPF male mice (Clea Japan, Inc.) were used at age 10 weeks for the study animals. Twenty mice were divided into four groups of 5 mice each. In a single experiment, evaluation was carried out on four groups consisting of a control group (administered distilled water), a positive control group (administered sitagliptin) and two sample groups. Two experiments were carried out and a total of four samples were evaluated.
Blood samples were collected from the caudal veins of the mice that had been fasting since the previous evening, and blood sugar levels were measured using a simple blood glucose measuring device (GLUTEST ACE®, Sanwa Kagaku Kenkyusho Co., Ltd.) to determine pretest values (0 minutes). 100 mg tablets of sitagliptin (MERCK) were ground with a mortar and suspended in water to a concentration of 0.1 mg/mL as sitagliptin for use as a positive control. Each of the enzyme-treated beans prepared in Example 2 (or in accordance with the method thereof) was dissolved with distilled water to a concentration of 400 mg/mL for use as an administration sample. Distilled water (control group), the sitagliptin suspension (positive control group) or the enzyme-treated bean aqueous solution (sample group) was administered orally at 10 mL/kg of body weight. A 40% aqueous glucose solution was administered orally at 5 mL/kg of body weight 30 minutes after administering the distilled water, sitagliptin suspension, or sample. Blood samples were collected from the caudal veins of the mice at, 30, 60 and 120 minutes after the oral administration of glucose, followed by measurement of these blood sugar levels in the same manner as that used for measurement of pretest values.

In the case of `N[C@@H](CC(=O)N1CCn2c(nnc2C(F)(F)F)C1)Cc1cc(F)c(F)cc1F` [Sitagliptin, sitagliptin], the “Blood sugar level, 0 minutes (pretest value)” value (Experiment 1) is reported as 82.4 ± 7.0, the “Blood sugar level, 30 minutes after glucose administration” value (Experiment 1) is reported as 270.6 ± 24.2 and the “Blood sugar level, 60 minutes after glucose administration” value (Experiment 1) is reported as 185.4 ± 16.2. The “Blood sugar level, 120 minutes after glucose administration” value (Experiment 1) was 110.2 ± 12.3, the “Blood sugar level, 0 minutes (pretest value)” value (Experiment 2) was 72.0 ± 4.7 and the “Blood sugar level, 30 minutes after glucose administration” value (Experiment 2) was 215.4 ± 8.5. The “Blood sugar level, 60 minutes after glucose administration” value (Experiment 2) was 145.0 ± 8.9 and the “Blood sugar level, 120 minutes after glucose administration” value (Experiment 2) was 93.6 ± 8.7.
